pIC50: −log10 of the molar value.
Species on record: Cavia porcellus
Assay: Ability to Inhibit amplitude of the electrically stimulated guinea pig ileum by 50%; Inactive at 1.7E-6 concentration; call rule not given here
Assay type: functional, organism-based

Row | SMILES | IC50
1 | CC(C)C[C@@H](NC(=O)[C@@H](Cc1ccccc1)NC(=O)CNC(=O)C(C)NC(=O)[C@](C)(N)Cc1ccc(O)cc1)C(=O)O (stereo in doubt) | Not Active

Tested on: not listed separately
Assay: Ratio of IC50 of [D-Ala2, D-Leu5]-enkephalin to that of the compound, in the guinea pig ileum assay
Assay type: functional

Row | SMILES | Ratio
2 | C[C@@H](NC(=O)[C@@H](N)Cc1ccc(O)cc1)C(=O)NCC(=O)NC1CCc2ccccc21 (some centres undefined) | 0.47

Species on record: Cavia porcellus
Assay: Inhibition of contraction of electrically stimulated guinea pig ileum
Assay type: functional, organism-based

Row | SMILES | pIC50
3 | C[C@@H](NC(=O)[C@@H](N)Cc1ccc(O)cc1)C(=O)NCC(=O)OCc1ccccc1 | 6.66
4 | CN1CC[C@]23c4c5ccc(O)c4O[C@H]2[C@@H](O)C=C[C@H]3[C@H]1C5 | 8.80
5 | CSCC[C@H](NC(=O)[C@H](Cc1ccccc1)NC(=O)CNC(=O)[C@H](NC(=O)[C@@H](N)Cc1ccc(O)cc1)C(C)C)C(N)=O | 7.80
6 | CC(C)[C@H](NC(=O)[C@@H](N)Cc1ccc(O)cc1)C(=O)NCC(=O)NC1CCc2ccccc21 (some centres undefined) | 5.85
7 | CC(C)[C@H](NC(=O)CNC(=O)[C@@H](N)Cc1ccc(O)cc1)C(=O)NC1CCc2ccccc21 (some centres undefined) | 5.04
8 | CCOC(=O)CC[C@H](N)C(=O)N[C@H](C)C(=O)NCC(=O)N[C@@H](Cc1ccccc1)C(=O)N[C@H](CC(C)C)C(=O)O | 5.13
9 | C[C@@H](NC(=O)[C@@H](N)Cc1ccc(O)cc1)C(=O)NCC(=O)NC1CCc2ccccc21 (some centres undefined) | 7.40
10 | CC(C)[C@H](NC(=O)[C@](C)(Cc1ccccc1)NC(=O)CNC(=O)[C@@H](C)NC(=O)[C@@H](N)Cc1ccc(O)cc1)C(=O)O | 6.90
11 | CC(NC(=O)[C@@H](N)Cc1ccc(O)cc1)C(=O)NCC(=O)NCC1CC1 (stereo in doubt) | 6.32
12 | CC(NC(=O)[C@@H](N)Cc1ccc(O)cc1)C(=O)NCC(=O)N[C@@](C)(Cc1ccccc1)C(=O)O (stereo in doubt) | 7.12
13 | CC(NC(=O)[C@@H](N)Cc1ccc(O)cc1)C(=O)NCC(=O)NC1Cc2ccccc2C1 (stereo in doubt) | 5.05
14 | CC(C)CC(NC(=O)[C@H](CC1CCCCC1)NC(=O)CNC(=O)C(C)NC(=O)[C@@H](N)Cc1ccc(O)cc1)C(=O)O (stereo in doubt) | 8.05
15 | CC(NC(=O)[C@@H](N)Cc1ccc(O)cc1)C(=O)NCC(=O)NCc1ccccc1 (stereo in doubt) | 6.85
16 | CC(C)C[C@@H](NC(=O)[C@](C)(Cc1ccccc1)NC(=O)CNC(=O)C(C)NC(=O)[C@@H](N)Cc1ccc(O)cc1)C(=O)O (stereo in doubt) | 7.38
17 | CC(NC(=O)[C@@H](N)Cc1ccc(O)cc1)C(=O)NCC(=O)O (stereo in doubt) | 4.61
18 | CC(NC(=O)[C@@H](N)Cc1ccc(O)cc1)C(=O)NCC(=O)NCC1CCC1 (stereo in doubt) | 6.49
19 | CC(NC(=O)[C@@H](N)Cc1ccc(O)cc1)C(=O)NCC(=O)NCCc1ccccc1 (stereo in doubt) | 7.01
20 | CC(C)C[C@@H](NC(=O)[C@H](Cc1ccccc1)NC(=O)CNC(=O)[C@@H](C)NC(=O)[C@@H](N)Cc1ccc(O)cc1)C(=O)O [DADLE] | 7.77

Species on record: Cavia porcellus
Assay: Ability to Inhibit amplitude of the electrically stimulated guinea pig ileum by 50%; Inactive at 2.19E-4 concentration
Assay type: functional, organism-based

Row | SMILES | IC50
21 | NCCc1ccc(O)cc1 [TYRAMINE] | Not Active

Species on record: Cavia porcellus
Assay: Ability to Inhibit amplitude of the electrically stimulated guinea pig ileum by 50%; Inactive at 3.2E-6 concentration
Assay type: functional, organism-based

Row | SMILES | IC50
22 | CC(C)[C@H](NC(=O)CNC(=O)[C@@H](N)Cc1ccc(O)cc1)C(=O)NC1CCc2ccccc21 (some centres undefined) | Not Active

Species on record: Cavia porcellus
Assay: Ability to Inhibit amplitude of the electrically stimulated guinea pig ileum by 50%
Assay type: functional, organism-based

Row | SMILES | pIC50
23 | N[C@@H](Cc1ccc(O)cc1)C(=O)NCC(=O)NCC(=O)NC1CCc2ccccc21 (some centres undefined) | 5.59

Species on record: Cavia porcellus
Assay: Ability to Inhibit amplitude of the electrically stimulated guinea pig ileum by 50%; Inactive at 2.71E-6
Assay type: functional, organism-based

Row | SMILES | IC50
24 | CC(NC(=O)[C@@H](N)Cc1ccc(O)cc1)C(=O)NCC(=O)NC1Cc2ccccc2C1 (stereo in doubt) | Not Active

— ChEMBL document CHEMBL1121541, “Novel analogues of enkephalin: indentification of functional groups required for biological activity” (J Med Chem, 1980)
